# Columns and labels:
# LPS-induced septic mice = test: LPS-induced sepsis mouse model, survival; format: in vivo; conditions: LPS group 0%
# Procedure: For LPS‐induced sepsis model experiments, 25 male C57BL/6J mice, 6–8 weeks old, weighing 20–25 g, were randomly divided into five groups (n = 5 in each group), and survival was examined. The abdominal cavity was injected with 40 mg kg^−1 LPS to induce sepsis. 30 min later, mice in group 1 were injected subcutaneously with 0.9% NaCl, mice in groups 2–4 were injected subcutaneously with CV122 (20 mg kg^−1), CV122 (30 mg kg^−1), and CV122 (40 mg kg^−1), respectively, and mice in group 5 were injected subcutaneously with Suramin (40 mg kg^−1). The status of the mice was observed and recorded every day.
# [1] = tested on: M1 macrophages (F4/80+CD86+); test: Flow cytometry of M1 macrophages in organs of LPS-induced septic mice; format: in vivo, mouse; conditions: 12 h after LPS 40 mg/kg i.p.
# Procedure: (§1) Each group of mice was euthanized 24 h after LPS injection, spleens were harvested, red blood cells were lysed to detect splenocyte apoptosis, and the ratio of CD3^+CD4^+ T cells, CD3^+CD8^+ T cells, CD3^−CD19^+ B cells in spleen cells and lymph nodes quantified. Antibodies were: FITC‐Annexin V and PI; APC‐CD3, FITC‐CD4, PE‐CD8a, and PE‐CD19. Each group of mice was euthanized 12 h after LPS injection, Lung, kidney, and spleens were harvested, red blood cells were lysed to detect the ratio of macrophages in multiple organs, Antibodies were: FITC anti‐mouse F4/80; APC anti‐mouse CD86. Flow cytometry was used to quantify the adhesion molecules ICAM‐1 and VCAM‐1 on the surface of RAW264.7 cells and HUVECs. CV122 (50 µM) was incubated with the cells for 3 h, LPS (5 µg mL^−1) and TNF‐α (20 ng mL^−1) were used to stimulate the cells for 1 h, and the cells were collected. FITC anti‐mouse CD54 antibody and AF647 anti‐mouse CD106 antibody were incubated for 30 min at room temperature in the dark, PBS was added at 1000 rpm, and the cells were centrifuged for 7 min. A 200‐mesh copper mesh was used to filter the cells into a flow cytometer, and a flow cytometer (BD Biosciences) was used for detection.
# Figure S6. M1 macrophages in multiple organs of LPS-induced septic mice. […] All results are expressed as mean ± SD (n = 3), *p < 0.05,**p < 0.01, ***p < 0.001, ****p < 0.0001; ns, not significant. […]
# [2] = tested on: splenocytes and lymph node cells; test: Flow cytometry of splenocyte apoptosis and T/B cells in LPS-induced septic mice; format: in vivo, mouse; conditions: 24 h after LPS
# Procedure: as §1
# HPA = HPA levels in LPS-stimulated RAW264.7 macrophages (immunofluorescence, western blotting); format: cell-based, mouse; conditions: CV122 50 µM 3 h, then LPS 5 µg mL−1 1 h
# Procedure: Lungs were harvested from LPS‐induced and CLP‐induced sepsis model mice, and frozen sections were prepared. HUVECs and RAW264.7 macrophages were incubated with CV122 for 3 h, and TNF‐α (20 ng mL^−1) and LPS (5 µg mL^−1) were used to stimulate cells for 1 h. Lung tissue, HUVECs, and RAW264.7 macrophages were fixed with 4% paraformaldehyde for 10 min before permeabilization with 0.5% Triton X‐100 for 10 min. The membrane was sealed with 4% skimmed milk powder and incubated at room temperature for 50 min. Primary antibodies were rabbit anti‐heparanase polyclonal antibodies overnight at 4 °C. The diluent of the secondary antibody FITC‐WGA‐lectin was kept at room temperature and protected from light for 1 h. Nuclei were stained with DAPI. After 120 s, images were acquired with a confocal microscope (LSM 800, Zeiss, Germany).
# CV122 (50 µM) was incubated with HUVECs and RAW264.7 cells for 3 h, and LPS (5 µg mL^−1) and TNF‐α (20 ng mL^−1) were incubated for 1 h. Total protein was extracted with RIPA tissue/cell lysate solution. Lung tissues were collected and homogenized in cold RIPA buffer to obtain proteins. The BCA method was used to quantify protein. After full denaturing, proteins were separated by 10% SDS‐PAGE and transferred to PVDF membrane. […] Blots were developed with a chemiluminescent HRP substrate, and the protein bands were detected with a chemiluminescence imager (MiniChemi610).
# CCHFV = format: in vivo, mouse
# RAW264.7 macrophages = test: Cell survival assay (CCK-8) in RAW264.7 macrophages; conditions: 50 to 200 µM
smiles,measurement,setting,value
COC1OC(COS(=O)(=O)O)C(OC2OC(C(=O)O)C(OC3OC(COS(=O)(=O)O)C(OC4OC(C(=O)O)C(OC5OC(COS(=O)(=O)O)C(O)C(O)C5NS(=O)(=O)O)C(OS(=O)(=O)O)C4O)C(OS(=O)(=O)O)C3NS(=O)(=O)O)C(O)C2OS(=O)(=O)O)C(O)C1NS(=O)(=O)O (stereo not drawn) [CV122],survival rate,LPS-induced septic mice; 20 mg kg−1 s.c. 30 min after LPS 40 mg kg−1 i.p.,60%
same,survival rate,"LPS-induced septic mice; 40 mg kg−1 s.c. 30 min after LPS 40 mg kg−1 i.p., 80 h or longer observation",100%
same,percentage of M1 macrophages in kidneys and spleen,[1],significantly inhibited the percentage of M1 macrophages
same,percentage of M1 macrophages (F4/80+CD86+) in the lung,[1]; **p < 0.01,significantly reduced by CV122
same,CD3+CD4+ T cells and CD3+CD8+ T cells in spleen,[2],recovered by CV122 to close to control levels
same,CD3−CD19+ B cells in spleen and inguinal lymph nodes,[2],recovered upon treatment with CV122
same,splenocyte apoptosis (FITC-Annexin V and PI),[2],significantly reduced apoptosis
same,HPA levels in macrophages,HPA,significantly inhibited HPA levels following LPS stimulation of macrophages
same,spleen pathological damage (H&E),CCHFV; 7 d after infection,spleen congestion and edema were slightly reduced
same,body weight,CCHFV; CCHFV-infected IFNAR−/− mice,slightly higher body weights
same,survival rate,"CCHFV; CV122 20 mg kg−1 s.c. at 2, 3, 4 and 5 days after infection, IFNAR−/− mice, 8 day or longer observation, control 20%",80%
same,effect on survival of RAW264.7 macrophages,RAW264.7 macrophages,no significant inhibitory effect

# — article PMC11304236, “A Novel Drug Candidate for Sepsis Targeting Heparanase by Inhibiting Cytokine Storm” (Advanced Science, 2024)
